Measured values from patent US20120245180A1, “COMBINATION” (GlaxoSmithKline LLC, priority 2009, published 2012).
Like-named read-outs stand apart in the source and are kept apart here. Values belong to the compound of their own block, whether it stands above or below them.

Tests used:
Type in all cases: cell-based
C3A = assay: Cell growth inhibition assay, hepatocellular carcinoma cell line (Cell Titer Glo); conditions: Homo sapiens, 72 h, 3 days
Procedure: (§1) Human tumor cell lines from hepatocellular carcinoma (HCC), C3A, Hep3B, HepG2, PLC/PRF/5, SNU182, SNU387, SNU398, SNU423, SNU449 and SNU475 were purchased from the ATCC. Human breast tumor cell lines, HCC2218, HCC1419, BT-474, SK-BR-3, UACC893, JIMT-1, MDA-MB-361, HCC202, MDA-MB-175-VII, HCC1569, HCC1937, HCC38, MDA-MB-157, HCC1954, HCC1500, BT483, KPL-1, SUM225 and ZR-75-1 from ATCC, SUM52 and SUM190 from Asterand, PLC (Detroit Mich.), were cultured in RPMI 1640 medium containing 10% FBS; SKBR3-W13 and BT-474-J4 cultured in RPMI 1640 medium containing 10% FBS and 1 μM lapatinib; KPL4 line was kindly provided by Dr Junichi Kurebayashi (Kawasaki Medical School, Okayama, Japan) and cultured in DMEM containing 5% FBS. JIMT-1 from European Collection of Cell Cultures (UK), is a line derived from a patient clinically resistant to trastuzumab (Herceptin®). SK-BR-3-W13 is a single cell clone isolated by a cloning cylinder after a single treatment of SK-BR-3 cells with 0.5 μM lapatinib. BT-474-J4 is a single cell clone derived from a pool of BT-474 cells that were selected to grow in lapatinib to a concentration of 3 μM.
(§2) Cells were seeded in a 96-well tissue culture plate (NUNC 136102) of RPMI medium containing 10% FBS at 500-2,000 cells per well. Approximately 24 hours after plating, cells were exposed to ten, two-fold or three-fold serial dilutions of either Compound A or B or the combination of the two agents at a 2:1 molar ratio (Compounds A and B respectively). In some cases, cells were grown in RPMI media containing 10% FBS and in the presence or absence of 2 ng/mL hepatocyte growth factor (HGF). Cells were incubated in the presence of compounds for 3 days. ATP levels were determined by adding Cell Titer Glo® (Promega) according to the manufacturer's protocol. Briefly, Cell Titer Glo® was added to each plate, incubated for 20 minutes then luminescent signal was read on the SpectraMax L plate reader with a 0.5 sec integration time. All assays were run at least in duplicate.
(§3) Inhibition of cell growth was estimated after treatment with compound or combination of compounds for three days and comparing the signal to cells treated with vehicle (DMSO). Cell growth was calculated relative to vehicle (DMSO) treated control wells. Concentration of compound that inhibits 50% of control cell growth (IC50) was back-interpolated when y=50% of DMSO treated control wells using nonlinear regression with the equation: […]
(§4) where A is the minimum response (ymin), B is the maximum response (Ymax), C is the inflection point of the curve (EC50) and D is the Hill coefficient.
(§5) Combination effects on potency were evaluated using the Combination Index (CI) and Excess Over Highest Single Agent (EHOSA) methods.

Hep3B = assay: as above; conditions: Homo sapiens, 72 h, 3 days
Procedure: as §1, §2, §3, §4, §5

HepG2 = assay: as above; conditions: Homo sapiens, HepG2, 72 h, 3 days
Procedure: as §1, §2, §3, §4, §5

PLC/RF/5 = assay: as above; conditions: Homo sapiens, 72 h, 3 days
Procedure: as §1, §2, §3, §4, §5

SNU182 = assay: as above; conditions: Homo sapiens, SNU-182, 72 h, 3 days
Procedure: as §1, §2, §3, §4, §5

SNU387 = assay: as above; conditions: Homo sapiens, SNU-387, 72 h, 3 days
Procedure: as §1, §2, §3, §4, §5

SNU398 = assay: as above; conditions: Homo sapiens, SNU-398, 72 h, 3 days
Procedure: as §1, §2, §3, §4, §5

SNU423 = assay: as above; conditions: Homo sapiens, SNU-423, 72 h, 3 days
Procedure: as §1, §2, §3, §4, §5

SNU475 = assay: as above; conditions: Homo sapiens, SNU-475, 72 h, 3 days
Procedure: as §1, §2, §3, §4, §5

BT483 = assay: Cell growth inhibition assay, breast tumor cell line (Cell Titer Glo); conditions: Homo sapiens, BT-483, 72 h, BT483 (HER2−), 3 days
Procedure: as §1, §2, §3, §4, §5
(§6) DNA Copy number data on the HER2 gene was collected for all breast cancer cell lines using the Affymetrix 500K chip (Affymetrix Inc, Sunnyvale, Calif.). Briefly DNA was extracted from each line, digested with the restriction enzyme Nsp or Sty, ligated to an adaptor and amplified by PCR. After PCR, DNA was fragmented, labeled, denatured, and hybridized to the Affymetrix 500K chip. Upon completion of hybridization, each assay was washed and stained. Image data were acquired. Similarly collected data from a panel 10 diploid non-tumorigenic lymphoblastic cell lines were used to calculate DNA copy number. All ‘SNP Chip’ images ('CEL files'), were extracted, read and normalized using the dChip software package (Lin et al. 2004. Bioinformatics. 20:1233-40). SNP-wise ‘copy-number ratios’ (log2 scale) were calculated for all cancer cell lines using the lymphoblastic reference panel and analyzed by circular binary segmentation to reduce noise (Olshen et al. 2004. Biostatistics. 5:557-72). Cell lines with log2 ratios of HER2>0.65 were considered HER2+.

KPL1 = assay: as above; conditions: Homo sapiens, KPL-1, 72 h, KPL1 (HER2−), 3 days
Procedure: as §1, §2, §3, §4, §5, §6

[1] = test system: Human breast tumor cell lines; assay: Cell growth inhibition, panel of breast tumor cell lines
Procedure: Human tumor cell lines from hepatocellular carcinoma (HCC), C3A, Hep3B, HepG2, PLC/PRF/5, SNU182, SNU387, SNU398, SNU423, SNU449 and SNU475 were purchased from the ATCC. […]
Cells were seeded in a 96-well tissue culture plate (NUNC 136102) of RPMI medium containing 10% FBS at 500-2,000 cells per well. […] ATP levels were determined by adding Cell Titer Glo® (Promega) according to the manufacturer's protocol. Briefly, Cell Titer Glo® was added to each plate, incubated for 20 minutes then luminescent signal was read on the SpectraMax L plate reader with a 0.5 sec integration time. […]
Inhibition of cell growth was estimated after treatment with compound or combination of compounds for three days and comparing the signal to cells treated with vehicle (DMSO). Cell growth was calculated relative to vehicle (DMSO) treated control wells. […]
as §5
DNA Copy number data on the HER2 gene was collected for all breast cancer cell lines using the Affymetrix 500K chip (Affymetrix Inc, Sunnyvale, Calif.). […] All ‘SNP Chip’ images ('CEL files'), were extracted, read and normalized using the dChip software package (Lin et al. 2004. Bioinformatics. 20:1233-40). […]

[2] = HGF + (2 ng/ml), read-out: Single agent IC50, Compound A
[3] = HGF −, read-out: Single agent IC50, Compound A
[4] = read-out: Single agent IC50, Compound A
[5] = HGF + (2 ng/ml), read-out: Single agent IC50, Compound B
[6] = HGF −, read-out: Single agent IC50, Compound B
[7] = read-out: Single agent IC50, Compound B

IC50 (C3A; [2]): 36 ± 11 nM
IC50 (C3A; [3]): 10 ± 3 nM
IC50 (Hep3B; [2]): 37 ± 8 nM
IC50 (Hep3B; [3]): 26 ± 8 nM
IC50 (HepG2; HepG2, HGF + (2 ng/ml), read-out: Single agent IC50, Compound A): 3 ± 1 nM
IC50 (HepG2; HepG2, HGF −, read-out: Single agent IC50, Compound A): 1 nM
IC50 (PLC/RF/5; PLC/RF/5, HGF + (2 ng/ml), read-out: Single agent IC50, Compound A): 2870 ± 1560 nM
IC50 (PLC/RF/5; PLC/RF/5, HGF −, read-out: Single agent IC50, Compound A): 1600 ± 509 nM
IC50 (SNU182; SNU182, HGF + (2 ng/ml), read-out: Single agent IC50, Compound A): 1280 ± 1220 nM
IC50 (SNU182; SNU182, HGF −, read-out: Single agent IC50, Compound A): 1760 ± 224 nM
IC50 (SNU387; SNU387, HGF + (2 ng/ml), read-out: Single agent IC50, Compound A): 94 ± 21 nM
IC50 (SNU387; SNU387, HGF −, read-out: Single agent IC50, Compound A): 74 ± 46 nM
IC50 (SNU398; SNU398, HGF + (2 ng/ml), read-out: Single agent IC50, Compound A): > 5000 nM
IC50 (SNU398; SNU398, HGF −, read-out: Single agent IC50, Compound A): > 5000 nM
IC50 (SNU423; SNU423, HGF + (2 ng/ml), read-out: Single agent IC50, Compound A): 577 ± 569 nM
IC50 (SNU423; SNU423, HGF −, read-out: Single agent IC50, Compound A): 218 ± 130 nM
IC50 (SNU475; SNU475, HGF + (2 ng/ml), read-out: Single agent IC50, Compound A): > 5000 nM
IC50 (SNU475; SNU475, HGF −, read-out: Single agent IC50, Compound A): > 5000 nM
IC50 (BT483; [4]): > 1000 nM
IC50 (KPL1; [4]): > 1000 nM
IC50 ([1]; SUM52 and MDA-MB-17511): ≤ 99 nM
Structure (SMILES): CC(=O)Nc1cccc(-n2c(=O)n(C3CC3)c(=O)c3c(Nc4ccc(I)cc4F)n(C)c(=O)c(C)c32)c1 [Compound A, N-{3-[3-cyclopropyl-5-[(2-fluoro-4-iodophenyl)amino]-6,8-dimethyl-2,4,7-trioxo-3,4,6,7-tetrahydropyrido[4,3-d]pyrimidin-1(2H)-yl]phenyl}acetamide]

IC50 (C3A; [5]): 13 ± 1 nM
IC50 (C3A; [6]): 13 ± 1 nM
IC50 (Hep3B; [5]): 57 ± 20 nM
IC50 (Hep3B; [6]): 28 ± 2 nM
IC50 (HepG2; HepG2, HGF + (2 ng/ml), read-out: Single agent IC50, Compound B): 9 ± 5 nM
IC50 (HepG2; HepG2, HGF −, read-out: Single agent IC50, Compound B): 9 ± 8 nM
IC50 (PLC/RF/5; PLC/RF/5, HGF + (2 ng/ml), read-out: Single agent IC50, Compound B): 15 ± 1 nM
IC50 (PLC/RF/5; PLC/RF/5, HGF −, read-out: Single agent IC50, Compound B): 18 ± 12 nM
IC50 (SNU182; SNU182, HGF + (2 ng/ml), read-out: Single agent IC50, Compound B): 17 ± 4 nM
IC50 (SNU182; SNU182, HGF −, read-out: Single agent IC50, Compound B): 17 ± 1 nM
IC50 (SNU387; SNU387, HGF + (2 ng/ml), read-out: Single agent IC50, Compound B): 71 ± 10 nM
IC50 (SNU387; SNU387, HGF −, read-out: Single agent IC50, Compound B): 103 ± 10 nM
IC50 (SNU398; SNU398, HGF + (2 ng/ml), read-out: Single agent IC50, Compound B): 83 ± 2 nM
IC50 (SNU398; SNU398, HGF −, read-out: Single agent IC50, Compound B): 98 ± 21 nM
IC50 (SNU423; SNU423, HGF + (2 ng/ml), read-out: Single agent IC50, Compound B): 21 ± 7 nM
IC50 (SNU423; SNU423, HGF −, read-out: Single agent IC50, Compound B): 23 ± 16 nM
IC50 (SNU475; SNU475, HGF + (2 ng/ml), read-out: Single agent IC50, Compound B): 39 ± 17 nM
IC50 (SNU475; SNU475, HGF −, read-out: Single agent IC50, Compound B): 50 ± 19 nM
IC50 (BT483; [7]): 106 ± 81 nM
IC50 (KPL1; [7]): 8 ± 4 nM
IC50 ([1]; all lines except HCC1937, SK-Br-3-W13 and MDA-MB-157): < 100 nM
Structure (SMILES): COc1ncc(-c2ccc3nccc(-c4ccnnc4)c3c2)cc1NS(=O)(=O)c1ccc(F)cc1F [Compound B, 2,4-difluoro-N-{2-(methyloxy)-5-[4-(4-pyridazinyl)-6-quinolinyl]-3-pyridinyl}benzenesulfonamide]
